Measurements reported in ChEMBL document CHEMBL4765227, “Hit to lead optimization of a series of N-[4-(1,3-benzothiazol-2-yl)phenyl]acetamides as monoacylglycerol lipase inhibitors with potential anticancer activity” (Eur J Med Chem, 2016).

Key:
Assay type in all cases: functional
Conditions in all cases: read-out: GI
[1] = test system: SR; assay: Growth inhibition of human SR cells at 10 uM incubated for 48 hrs by sulforhodamine B assay relative to control
[2] = test system: UO-31; assay: Growth inhibition of human UO-31 cells at 10 uM incubated for 48 hrs by sulforhodamine B assay relative to control
[3] = test system: NCI-H23; assay: Growth inhibition of human NCI-H23 cells at 10 uM incubated for 48 hrs by sulforhodamine B assay relative to control
[4] = test system: DU-145; assay: Growth inhibition of human DU-145 cells at 10 uM incubated for 48 hrs by sulforhodamine B assay relative to control
[5] = test system: PC-3; assay: Growth inhibition of human PC-3 cells at 10 uM incubated for 48 hrs by sulforhodamine B assay relative to control
[6] = test system: Hs-578T; assay: Growth inhibition of human Hs-578T cells at 10 uM incubated for 48 hrs by sulforhodamine B assay relative to control
[7] = test system: COLO 205; assay: Growth inhibition of human COLO 205 cells at 10 uM incubated for 48 hrs by sulforhodamine B assay relative to control
[8] = test system: HCT-116; assay: Growth inhibition of human HCT-116 cells at 10 uM incubated for 48 hrs by sulforhodamine B assay relative to control
[9] = test system: SNB-19; assay: Growth inhibition of human SNB-19 cells at 10 uM incubated for 48 hrs by sulforhodamine B assay relative to control
[10] = test system: OVCAR-4; assay: Growth inhibition of human OVCAR-4 cells at 10 uM incubated for 48 hrs by sulforhodamine B assay relative to control
[11] = test system: M14; assay: Growth inhibition of human M14 cells at 10 uM incubated for 48 hrs by sulforhodamine B assay relative to control
[12] = test system: HCT-15; assay: Growth inhibition of human HCT-15 cells at 10 uM incubated for 48 hrs by sulforhodamine B assay relative to control
[13] = test system: OVCAR-8; assay: Growth inhibition of human OVCAR-8 cells at 10 uM incubated for 48 hrs by sulforhodamine B assay relative to control
[14] = test system: CCRF-CEM; assay: Growth inhibition of human CCRF-CEM cells at 10 uM incubated for 48 hrs by sulforhodamine B assay relative to control
[15] = test system: TK-10; assay: Growth inhibition of human TK-10 cells at 10 uM incubated for 48 hrs by sulforhodamine B assay relative to control
[16] = test system: SF-295; assay: Growth inhibition of human SF-295 cells at 10 uM incubated for 48 hrs by sulforhodamine B assay relative to control
[17] = test system: HOP-92; assay: Growth inhibition of human HOP-92 cells at 10 uM incubated for 48 hrs by sulforhodamine B assay relative to control
[18] = test system: NCI-H522; assay: Growth inhibition of human NCI-H522 cells at 10 uM incubated for 48 hrs by sulforhodamine B assay relative to control
[19] = test system: KM12; assay: Growth inhibition of human KM12 cells at 10 uM incubated for 48 hrs by sulforhodamine B assay relative to control
[20] = test system: HT-29; assay: Growth inhibition of human HT-29 cells at 10 uM incubated for 48 hrs by sulforhodamine B assay relative to control
[21] = test system: MDA-MB-435; assay: Growth inhibition of human MDA-MB-435 cells at 10 uM incubated for 48 hrs by sulforhodamine B assay relative to control
[22] = test system: RPMI-8226; assay: Growth inhibition of human RPMI-8226 cells at 10 uM incubated for 48 hrs by sulforhodamine B assay relative to control
[23] = test system: T47D; assay: Growth inhibition of human T47D cells at 10 uM incubated for 48 hrs by sulforhodamine B assay relative to control
[24] = test system: SF-268; assay: Growth inhibition of human SF-268 cells at 10 uM incubated for 48 hrs by sulforhodamine B assay relative to control
[25] = test system: NCI-H226; assay: Growth inhibition of human NCI-H226 cells at 10 uM incubated for 48 hrs by sulforhodamine B assay relative to control
[26] = test system: SF-539; assay: Growth inhibition of human SF-539 cells at 10 uM incubated for 48 hrs by sulforhodamine B assay relative to control
[27] = test system: A549; assay: Growth inhibition of human A549/ATCC cells at 10 uM incubated for 48 hrs by sulforhodamine B assay relative to control
[28] = test system: LOX IMVI; assay: Growth inhibition of human LOX IMVI cells at 10 uM incubated for 48 hrs by sulforhodamine B assay relative to control
[29] = test system: SN12C; assay: Growth inhibition of human SN12C cells at 10 uM incubated for 48 hrs by sulforhodamine B assay relative to control
[30] = test system: SK-OV-3; assay: Growth inhibition of human SK-OV-3 cells at 10 uM incubated for 48 hrs by sulforhodamine B assay relative to control
[31] = test system: U-251; assay: Growth inhibition of human U-251 cells at 10 uM incubated for 48 hrs by sulforhodamine B assay relative to control
[32] = test system: RXF 393; assay: Growth inhibition of human RXF 393 cells at 10 uM incubated for 48 hrs by sulforhodamine B assay relative to control
[33] = test system: HL-60(TB); assay: Growth inhibition of human HL-60(TB) cells at 10 uM incubated for 48 hrs by sulforhodamine B assay relative to control
[34] = test system: NCI-H322M; assay: Growth inhibition of human NCI-H322M cells at 10 uM incubated for 48 hrs by sulforhodamine B assay relative to control
[35] = test system: NCI-H460; assay: Growth inhibition of human NCI-H460 cells at 10 uM incubated for 48 hrs by sulforhodamine B assay relative to control
[36] = test system: HCC 2998; assay: Growth inhibition of human HCC 2998 cells at 10 uM incubated for 48 hrs by sulforhodamine B assay relative to control
[37] = test system: MDA-MB-231; assay: Growth inhibition of human MDA-MB-231 cells at 10 uM incubated for 48 hrs by sulforhodamine B assay relative to control
[38] = test system: UACC-62; assay: Growth inhibition of human UACC-62 cells at 10 uM incubated for 48 hrs by sulforhodamine B assay relative to control
[39] = test system: MDA-MB-468; assay: Growth inhibition of human MDA-MB-468 cells at 10 uM incubated for 48 hrs by sulforhodamine B assay relative to control
[40] = test system: OVCAR-5; assay: Growth inhibition of human OVCAR-5 cells at 10 uM incubated for 48 hrs by sulforhodamine B assay relative to control
[41] = test system: UACC-257; assay: Growth inhibition of human UACC-257 cells at 10 uM incubated for 48 hrs by sulforhodamine B assay relative to control
[42] = test system: SW-620; assay: Growth inhibition of human SW-620 cells at 10 uM incubated for 48 hrs by sulforhodamine B assay relative to control
[43] = test system: ACHN; assay: Growth inhibition of human ACHN cells at 10 uM incubated for 48 hrs by sulforhodamine B assay relative to control
[44] = test system: SK-MEL-5; assay: Growth inhibition of human SK-MEL-5 cells at 10 uM incubated for 48 hrs by sulforhodamine B assay relative to control

With `O=C(CNc1c(Cl)cccc1Cl)Nc1ccc(-c2nc3ccccc3s2)cc1` the inhibition of growth at 10 µM [1] was 89.3%, the inhibition of growth at 10 µM [2] was 26.3% and the inhibition of growth at 10 µM [3] was 59.1%. The inhibition of growth at 10 µM [4] was 14.3%, the inhibition of growth at 10 µM [5] was 14.1% and the inhibition of growth at 10 µM [6] was 12.8%. It also gave an inhibition of growth at 10 µM [7] of 12.3%, an inhibition of growth at 10 µM [8] of 70.1% and an inhibition of growth at 10 µM [9] of 26.1%. It also gave an inhibition of growth at 10 µM [10] of 82.5%, an inhibition of growth at 10 µM [11] of 44.3% and an inhibition of growth at 10 µM [12] of 97.6%. The inhibition of growth at 10 µM [13] was 33.3%, the inhibition of growth at 10 µM [14] was 97.8% and the inhibition of growth at 10 µM [15] was -6.12%. For the same compound, the inhibition of growth at 10 µM [16] was 2.62%, the inhibition of growth at 10 µM [17] was 5.78% and the inhibition of growth at 10 µM [18] was 193%. It also gave an inhibition of growth at 10 µM [19] of 8.67%, an inhibition of growth at 10 µM [20] of 30.2% and an inhibition of growth at 10 µM [21] of 32.1%. It also gave an inhibition of growth at 10 µM [22] of 40.2%, an inhibition of growth at 10 µM [23] of 119% and an inhibition of growth at 10 µM [24] of 53.8%. It also gave an inhibition of growth at 10 µM [25] of 45.6%, an inhibition of growth at 10 µM [26] of 20.1% and an inhibition of growth at 10 µM [27] of 14.3%. For the same compound, the inhibition of growth at 10 µM [28] was 149%, the inhibition of growth at 10 µM [29] was 52% and the inhibition of growth at 10 µM [30] was 2.25%. The inhibition of growth at 10 µM [31] was 72.3%, the inhibition of growth at 10 µM [32] was 13.4% and the inhibition of growth at 10 µM [33] was 29.3%. The inhibition of growth at 10 µM [34] was 5.42%, the inhibition of growth at 10 µM [35] was 8.81% and the inhibition of growth at 10 µM [36] was 64.4%. The inhibition of growth at 10 µM [37] was 43.1%, the inhibition of growth at 10 µM [38] was 64.9% and the inhibition of growth at 10 µM [39] was 107%. For the same compound, the inhibition of growth at 10 µM [40] was -10.4%, the inhibition of growth at 10 µM [41] was 3.54% and the inhibition of growth at 10 µM [42] was 64.7%. The inhibition of growth at 10 µM [43] was 57.7% and the inhibition of growth at 10 µM [44] was 78.8%.
Compound `O=C(CNc1ccc(Cl)cc1)Nc1ccc(-c2nc3ccccc3s2)cc1` has an inhibition of growth at 10 µM [1] of 88.5%, an inhibition of growth at 10 µM [2] of 35% and an inhibition of growth at 10 µM [3] of 60.9%. It also gave an inhibition of growth at 10 µM [4] of 29.8%, an inhibition of growth at 10 µM [5] of 14.7% and an inhibition of growth at 10 µM [6] of 15.9%. For the same compound, the inhibition of growth at 10 µM [7] was 53%, the inhibition of growth at 10 µM [8] was 76.7% and the inhibition of growth at 10 µM [9] was 36.4%. The inhibition of growth at 10 µM [10] was 76.9%, the inhibition of growth at 10 µM [11] was 55.8% and the inhibition of growth at 10 µM [12] was 114%. For the same compound, the inhibition of growth at 10 µM [13] was 33.6%, the inhibition of growth at 10 µM [14] was 96.8% and the inhibition of growth at 10 µM [15] was -18.4%. For the same compound, the inhibition of growth at 10 µM [16] was 5.37%, the inhibition of growth at 10 µM [17] was 2.16% and the inhibition of growth at 10 µM [18] was 194%. It also gave an inhibition of growth at 10 µM [19] of 19.3%, an inhibition of growth at 10 µM [20] of 52.1% and an inhibition of growth at 10 µM [21] of 37.2%. The inhibition of growth at 10 µM [22] was 54%, the inhibition of growth at 10 µM [23] was 95.4% and the inhibition of growth at 10 µM [24] was 75.9%. For the same compound, the inhibition of growth at 10 µM [25] was 41.9%, the inhibition of growth at 10 µM [26] was 21.9% and the inhibition of growth at 10 µM [27] was 11%. It also gave an inhibition of growth at 10 µM [28] of 141%, an inhibition of growth at 10 µM [29] of 53.2% and an inhibition of growth at 10 µM [30] of 10.2%. It also gave an inhibition of growth at 10 µM [31] of 73.7%, an inhibition of growth at 10 µM [32] of 15.8% and an inhibition of growth at 10 µM [33] of 29%. For the same compound, the inhibition of growth at 10 µM [34] was 19.7%, the inhibition of growth at 10 µM [35] was 12.9% and the inhibition of growth at 10 µM [36] was 116%. For the same compound, the inhibition of growth at 10 µM [37] was 62.4%, the inhibition of growth at 10 µM [38] was 69.9% and the inhibition of growth at 10 µM [39] was 111%. The inhibition of growth at 10 µM [40] was -21.1%, the inhibition of growth at 10 µM [41] was 9.09% and the inhibition of growth at 10 µM [42] was 77.4%. The inhibition of growth at 10 µM [43] was 77.2% and the inhibition of growth at 10 µM [44] was 75%.
